Here are results for 14 compounds from ChEMBL document CHEMBL4020735, “Design, synthesis, and evaluation of multitarget-directed ligands against Alzheimer's disease based on the fusion of donepezil and curcumin” (Bioorg Med Chem, 2017).

Molecules are shown by their SMILES. pIC50: −log10 of the molar value. Active and inactive are the calls of the source. The calls are words filed in the database; no cut-off is given here.

For data set [1], the target named is Amyloid-beta precursor protein (Homo sapiens) (UniProt P05067). The experiment in a line: Inhibition of self-mediated aggregation of amyloid beta (1 to 42 residues) (unknown origin) at 20 uM after 48 hrs by Thioflavin T fluorescence assay relative to control.
Chain of Amyloid-beta precursor protein (Homo sapiens) (P05067 whole entry, the tested form may be a part): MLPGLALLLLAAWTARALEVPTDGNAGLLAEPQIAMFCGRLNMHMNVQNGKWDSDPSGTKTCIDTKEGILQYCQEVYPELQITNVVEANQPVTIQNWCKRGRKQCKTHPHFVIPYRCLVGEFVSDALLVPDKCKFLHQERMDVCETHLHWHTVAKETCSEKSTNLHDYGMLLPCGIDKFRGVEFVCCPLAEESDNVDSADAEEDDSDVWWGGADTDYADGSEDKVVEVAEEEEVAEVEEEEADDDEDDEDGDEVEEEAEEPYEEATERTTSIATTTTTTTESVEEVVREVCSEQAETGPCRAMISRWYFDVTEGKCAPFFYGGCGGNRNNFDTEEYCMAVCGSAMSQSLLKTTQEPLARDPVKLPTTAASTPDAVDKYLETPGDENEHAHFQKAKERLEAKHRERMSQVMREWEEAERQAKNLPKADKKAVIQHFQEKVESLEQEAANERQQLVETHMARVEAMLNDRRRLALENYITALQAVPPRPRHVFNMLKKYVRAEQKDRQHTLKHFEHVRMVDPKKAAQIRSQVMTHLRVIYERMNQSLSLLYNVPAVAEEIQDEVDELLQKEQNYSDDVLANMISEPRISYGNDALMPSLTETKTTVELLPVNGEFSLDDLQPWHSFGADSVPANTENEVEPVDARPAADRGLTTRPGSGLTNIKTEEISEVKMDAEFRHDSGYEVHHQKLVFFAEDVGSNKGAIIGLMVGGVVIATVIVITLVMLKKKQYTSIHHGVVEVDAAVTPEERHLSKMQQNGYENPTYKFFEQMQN
Data set [2] can be described thus: Antioxidant activity assessed as trolox equivalent of APPH-induced radical scavenging activity at 0.117 to 10 uM preincubated for 10 mins followed by AAPH addition measured every minute for 90 mins by ORAC fluorescein assay. Format: functional.
Data set [3] is described as follows: Permeability of the compound at […] after 10 hrs by PAMPA. The settings on record: read-out: permeability. It is filed as physicochemical. Background: In PAMPA a lipid-coated filter parts donor from acceptor wells.
A further data set deals with Acetylcholinesterase (Electrophorus electricus, UniProt O42275).
Chain of Acetylcholinesterase (O42275 whole entry): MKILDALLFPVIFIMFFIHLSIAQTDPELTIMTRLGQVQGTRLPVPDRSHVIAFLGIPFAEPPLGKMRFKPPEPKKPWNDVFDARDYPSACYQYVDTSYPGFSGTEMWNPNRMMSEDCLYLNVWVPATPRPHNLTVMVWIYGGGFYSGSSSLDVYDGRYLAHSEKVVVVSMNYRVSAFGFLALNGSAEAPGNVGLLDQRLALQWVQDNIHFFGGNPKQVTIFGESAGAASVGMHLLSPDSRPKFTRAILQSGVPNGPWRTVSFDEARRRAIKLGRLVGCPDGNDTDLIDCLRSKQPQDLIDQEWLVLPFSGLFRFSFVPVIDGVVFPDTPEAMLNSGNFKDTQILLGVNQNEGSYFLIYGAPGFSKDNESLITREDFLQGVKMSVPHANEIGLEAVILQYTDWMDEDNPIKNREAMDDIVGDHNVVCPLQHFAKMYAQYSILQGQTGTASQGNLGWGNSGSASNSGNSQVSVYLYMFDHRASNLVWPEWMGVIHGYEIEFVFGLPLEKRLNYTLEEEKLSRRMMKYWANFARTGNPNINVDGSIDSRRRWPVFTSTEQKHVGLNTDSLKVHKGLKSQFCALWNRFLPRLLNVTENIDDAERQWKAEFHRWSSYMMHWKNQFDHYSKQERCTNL
The target of the next data set is Cholinesterase (Equus caballus, UniProt P81908).
Chain of Cholinesterase (P81908 whole entry): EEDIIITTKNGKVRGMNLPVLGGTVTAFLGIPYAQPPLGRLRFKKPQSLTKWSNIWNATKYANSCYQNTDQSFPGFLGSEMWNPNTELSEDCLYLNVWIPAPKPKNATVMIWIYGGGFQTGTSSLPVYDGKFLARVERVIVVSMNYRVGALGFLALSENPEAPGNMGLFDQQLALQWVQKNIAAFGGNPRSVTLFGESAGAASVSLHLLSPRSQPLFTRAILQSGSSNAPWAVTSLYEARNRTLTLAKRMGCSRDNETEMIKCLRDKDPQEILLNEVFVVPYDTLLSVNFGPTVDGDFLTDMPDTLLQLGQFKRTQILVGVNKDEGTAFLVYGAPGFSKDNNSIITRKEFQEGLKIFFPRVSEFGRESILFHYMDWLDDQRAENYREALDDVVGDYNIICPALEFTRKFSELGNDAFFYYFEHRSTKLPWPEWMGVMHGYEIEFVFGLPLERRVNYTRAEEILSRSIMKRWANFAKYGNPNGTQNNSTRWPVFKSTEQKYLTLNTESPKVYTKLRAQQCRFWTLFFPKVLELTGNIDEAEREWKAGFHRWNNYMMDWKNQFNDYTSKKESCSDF
For data set [4], the target named is Acetylcholinesterase (Electrophorus electricus) (UniProt O42275). The experiment in a line: Mixed type inhibition of electric eel AChE using acetylthiocholine iodide as substrate preincubated for 15 mins followed by substrate addition by Lineweaver-Burk plot analysis.
Chain of Acetylcholinesterase (Electrophorus electricus) (O42275 24-633 limits assumed): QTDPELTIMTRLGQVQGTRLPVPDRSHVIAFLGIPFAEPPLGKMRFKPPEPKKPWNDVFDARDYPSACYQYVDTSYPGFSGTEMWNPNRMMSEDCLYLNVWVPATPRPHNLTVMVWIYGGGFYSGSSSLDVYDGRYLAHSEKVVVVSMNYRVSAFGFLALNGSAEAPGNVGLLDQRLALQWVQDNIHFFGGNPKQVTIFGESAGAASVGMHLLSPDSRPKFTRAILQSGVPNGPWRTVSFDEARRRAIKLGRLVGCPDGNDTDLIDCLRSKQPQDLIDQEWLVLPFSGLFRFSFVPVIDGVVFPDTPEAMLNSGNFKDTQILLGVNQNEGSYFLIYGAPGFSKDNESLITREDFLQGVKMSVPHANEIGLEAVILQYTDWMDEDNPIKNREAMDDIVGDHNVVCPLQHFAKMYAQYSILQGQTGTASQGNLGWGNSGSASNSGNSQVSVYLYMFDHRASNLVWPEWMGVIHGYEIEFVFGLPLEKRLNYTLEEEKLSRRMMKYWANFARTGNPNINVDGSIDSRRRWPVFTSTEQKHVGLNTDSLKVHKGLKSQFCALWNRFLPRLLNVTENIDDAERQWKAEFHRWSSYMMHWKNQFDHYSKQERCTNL
The nature of data set [5]: Metal chelating activity of compound assessed as compound-Cu2+ complex formation at 20 uM after 30 mins by UV-Vis spectrophotometric analysis. It is filed as functional.
Data set [6] in a line: Metal chelating activity of compound assessed as compound-Fe2+ complex formation at 20 uM after 30 mins by UV-Vis spectrophotometric analysis. It is filed as functional.
Data set [7] can be described thus: Metal chelating activity of compound assessed as compound-Zn2+ complex formation at 20 uM after 30 mins by UV-Vis spectrophotometric analysis. It is filed as functional.

The inhibition is how much of the control response was suppressed. Usually pIC50 stands for the IC50 on a negative log10 scale, so that one unit is a factor of ten. Regarding `COc1ccc(C(=O)CC(=O)CC2CCN(Cc3cccc(C)c3)CC2)cc1O`, the inhibition in data set [1] is 30.4%. Besides, in data set [2], the Activity amounted to 2.49 equiv. Further, in data set [3], the Papp at 10 h was determined as 11.3 ×10⁻⁶ cm/s. Further, the negative-log IC50 (pIC50) is 6.64 at Acetylcholinesterase and 5.01 against Cholinesterase.

On to `COc1cccc(C(=O)C(CC2CCN(Cc3ccccc3)CC2)C(C)=O)c1` (stereo not given), for which the values for the negative logarithm of the IC50 (pIC50) against Acetylcholinesterase and on Cholinesterase were 5.75 and 4.84, respectively.

Turning to `COc1cc(C(=O)C(CCC2CCN(Cc3ccccc3)CC2)C(C)=O)ccc1O` (stereo not given), the values for the pIC50 against Acetylcholinesterase and at Cholinesterase were 5.69 and 4.81, respectively.

Consider `COc1cc(C(=O)C(CCC2CCN(Cc3cccc(C)c3)CC2)C(C)=O)ccc1O` (stereo not given), for which the pIC50 at Acetylcholinesterase is 6.02; against Cholinesterase it was 5.47.

Consider `COc1ccc(C(=O)C(CC2CCN(Cc3ccccc3)CC2)C(C)=O)cc1OC` (stereo not given), for which the figures for the negative logarithm of the IC50 (pIC50) on Acetylcholinesterase and against Cholinesterase were 5.59 and 4.68, respectively.

On to `COc1ccc(C(=O)C(CCC2CCN(Cc3cccc(C)c3)CC2)C(C)=O)cc1OC` (stereo not given), for which the results for the negative-log IC50 (pIC50) at Acetylcholinesterase and against Cholinesterase were 6.58 and 5.70, respectively.

With `COc1cc(/C=C/C(=O)CC(=O)/C=C/c2ccc(O)c(OC)c2)ccc1O`, the Activity in data set [2] worked out at 2.52 equiv.

For `COc1ccc(C(=O)C(CCC2CCN(Cc3cccc(C)c3)CC2)C(C)=O)cc1O` (stereo not given), the pIC50 is 6.21 against Acetylcholinesterase and 4.78 at Cholinesterase.

Take `COCOc1ccc(C(=O)C(CCC2CCN(Cc3cccc(C)c3)CC2)C(C)=O)cc1OC` (stereo not given): the figures for the negative-log IC50 (pIC50) against Acetylcholinesterase and against Cholinesterase were 6.47 and 5.51, respectively.

`COc1ccc(C(=O)CC(=O)CC2CCN(Cc3ccccc3)CC2)cc1O` registered an inhibition in [1] of 45.3%. For the same compound, the Activity in data set [2] stood at 3.07 equiv. In addition, in data set [4], the inhibition result was “Active”. In addition, the outcome in data set [5] and in data set [6] was Active. In addition, in data set [7], the result was inactive. The Papp at 10 h in data set [3] came out at 11.8 ×10⁻⁶ cm/s. For the same compound, the negative logarithm of the IC50 (pIC50) at Acetylcholinesterase is 6.73; on Cholinesterase it was 4.91.

`COc1ccc(C(=O)CC(=O)CC2CCN(Cc3ccccc3)CC2)cc1OC` displayed an inhibition in [1] of 22%. Moreover, in data set [2], the Activity is 1.1 equiv. The Papp at 10 h in [3] was 12.1 ×10⁻⁶ cm/s. Moreover, the results for the pIC50 on Acetylcholinesterase and on Cholinesterase were 6.83 and 5.63, respectively.

As to `COc1ccc(C(=O)C(CCC2CCN(Cc3ccccc3)CC2)C(C)=O)cc1` (stereo not given), the results for the negative logarithm of the IC50 (pIC50) against Acetylcholinesterase and at Cholinesterase were 6.29 and 5.79, respectively.

Take `COc1cccc(C(=O)C(CCC2CCN(Cc3cccc(C)c3)CC2)C(C)=O)c1` (stereo not given): the negative-log IC50 (pIC50) against Acetylcholinesterase is 6.26; against Cholinesterase, 5.73.

In the case of `COc1ccc(C(=O)C(CCC2CCN(Cc3ccccc3)CC2)C(C)=O)cc1OC` (stereo not given), the figures for the negative-log IC50 (pIC50) against Acetylcholinesterase and against Cholinesterase were 6.43 and 5.55, respectively.
